Results taken from US12221444B2, “5,6,7,7a-tetrahydrocyclopenta[f]pyrido[1,2-h][1,7]naphthyridin-11(4bH)-one compounds and methods of use” (GLAXOSMITHKLINE INTELLECTUAL, priority 2017, dated 2025).
pEC50: −log10 of the molar value.

How the values were obtained:
HBs antigens (HBsAg) = experiment: HepAD38 cells HBsAg ELISA; format: cell-based, Hepatitis B virus; details: read-out: HepAD38, HBsAg (EC50), 7 days total treatment, HBsAg ELISA of cell media
Experimental: (§1) Example 36 HepAD38 Cells—HBsAg ELISA and Cytotoxicity Assays
(§2) HepAD38 cells are maintained in collagen-coated flasks in cell culture medium (DMEM/F12 containing 10% fetal bovine serum (FBS), GlutaMax-1, penicillin/streptomycin, non-essential amino acids, Na pyruvate, 250 μg/mL geneticin, and 1 μg/mL doxycycline). Compound solutions are prepared in DMSO and compound are serially diluted for final concentrations of 4000, 1000, 250, 62.5, 15.6, 3.91, 0.977, 0.244, 0.061, and 0.015 ηM. The cells are then trypsinized and the cells are plate at 10,000 cells per well. Incubate plates are incubated at 37° C., 5% CO2 for 4 days. Media is replaced with new media with compound treatment. The plates are then incubated at 37° C., 5% CO2 for an additional 3 days for a total treatment time of 7 days. For antiviral response, HBsAg was measured using the HBsAg ELISA kit (International Immuno-diagnostics) with instructions provided. 100 uL of cell media samples was used for ELISA. The absorbance was read on the Spectramax® 384 plate reader (Molecular Devices) at 450 nm. For cell toxicity, the cells were used for CellTiter-Glo® Luminescent Cell Viability Assay reagent (Promega). The luminescence was read on Envision Multilabel Reader (Perkin Elmer). The data was analyzed compared to the DMSO control. % inhibition=(1−(unknown/high control))*100
(§3) The average % inhibition values from duplicate assay plates are then plotted in GraphPad Prism to determine one IC value: Four-parameter logistic curve with equation Y=Bottom+(Top-Bottom)/(1+10^((Log IC50−X)*HillSlope)) pIC50=[…]

[1] = HepAD38 cells cytotoxicity assay (CellTiter-Glo Luminescent Cell Viability Assay); format: cell-based; details: human, 7 days total treatment, read-out: Cell tox (EC50, ηM)
Experimental: as §1, §2, §3

| Structure (SMILES) | pEC50 (HBs antigens (HBsAg)) | EC50 at 7 days [1] |
| --- | --- | --- |
| COCCCOc1cc2c(nc1C1CC1)-c1cc(=O)c(C(=O)O)cn1C(C)(C(C)C)C2 (single isomer, unassigned; isomer-1) [Example 28, 2-Cyclopropyl-6-isopropyl-3-(3-methoxypropoxy)-6-methyl-10-oxo-5,10-dihydro-6H-pyrido[1,2-h][1,7]naphthyridine-9-carboxylic acid-Isomer-1] | > 9.00 | > 4 µM |
| C=C(C)c1nc2c(cc1OCCCOC)C[C@@H](C(C)(C)C)n1cc(C(=O)O)c(=O)cc1-2 [Example 21, (S)-6-(tert-Butyl)-3-(3-methoxypropoxy)-10-oxo-2-(prop-1-en-2-yl)-6,10-dihydro-5H-pyrido[1,2-h][1,7]naphthyridine-9-carboxylic acid] | > 9.00 | > 4 µM |
| COCCCOc1cc2c(nc1Cl)-c1cc(=O)c(C(=O)O)c(C)n1[C@H](C(C)(C)C)C2 [Example 23, (S)-6-(tert-Butyl)-2-chloro-3-(3-methoxypropoxy)-8-methyl-10-oxo-6,10-dihydro-5H-pyrido[1,2-h][1,7]naphthyridine-9-carboxylic acid] | < 7.00 | > 4 µM |
| COCCCOc1cc2c(nc1Cl)-c1cc(=O)c(C(=O)O)cn1[C@@H]1C(C)(C)CCC21OC (stereo partly drawn) [Example 7, (7aR)-2-Chloro-4b-methoxy-3-(3-methoxypropoxy)-7,7-dimethyl-11-oxo-4b,5,6,7,7a,11-hexahydrocyclopenta[f]pyrido[1,2-h][1,7]naphthyridine-10-carboxylic acid] | 7.00 to 8.00 | > 4 µM |
| CC(C)(C)C1Cc2cc(OCC3CC3)c(Cl)nc2-c2cc(=O)c(C(=O)O)cn21 (single isomer, unassigned; isomer 2) [Example 30-B, 6-(tert-Butyl)-2-chloro-3-(cyclopropylmethoxy)-10-oxo-6,10-dihydro-5H-pyrido[1,2-h][1,7]naphthyridine-9-carboxylic acid (isomer 2)] | < 7.00 | > 4 µM |
| COCCCOc1cc2c(nc1C1CC1)-c1cc(=O)c(C(=O)O)cn1C1C2CCC1(C)C (racemic) [Example 4, 2-Cyclopropyl-3-(3-methoxypropoxy)-7,7-dimethyl-11-oxo-4b,5,6,7,7a,11-hexahydrocyclopenta[f]pyrido[1,2-h][1,7]naphthyridine-10-carboxylic acid (racemic cis)] | > 9.00 | > 4 µM |
| COCCCOc1cc2c(nc1OC)-c1cc(=O)c(C(=O)O)cn1[C@H](C(C)(C)C)C2 [Example 19, (S)-6-(tert-Butyl)-2-methoxy-3-(3-methoxypropoxy)-10-oxo-6,10-dihydro-5H-pyrido[1,2-h][1,7]naphthyridine-9-carboxylic acid] | > 9.00 | > 4 µM |
| CC1(C)CC[C@@H]2c3cc(O)c(Cl)nc3-c3cc(=O)c(C(=O)O)cn3[C@@H]21 [Example 9, (4bR,7aS)-2-Chloro-3-hydroxy-7,7-dimethyl-11-oxo-4b,5,6,7,7a,11-hexahydrocyclopenta[f]pyrido[1,2-h][1,7]naphthyridine-10-carboxylic acid] | < 7.00 | > 4 µM |
| COCCCOc1cc2c(nc1C(C)C)-c1cc(=O)c(C(=O)O)cn1[C@H](C(C)(C)C)C2 [Example 22, (S)-6-(tert-Butyl)-2-isopropyl-3-(3-methoxypropoxy)-10-oxo-6,10-dihydro-5H-pyrido[1,2-h][1,7]naphthyridine-9-carboxylic acid] | > 9.00 | > 4 µM |
| COCCCOc1cc2c(nc1Cl)-c1cc(=O)c(C(=O)O)cn1[C@H]1[C@@H]2CCC1(C)C (single isomer, unassigned) [Example 1] | > 9.00 | > 4 µM |
| CC(C)C1(C)Cc2cc(OCC3CC3)c(Cl)nc2-c2cc(=O)c(C(=O)O)cn21 (single isomer, unassigned; isomer-1) [Example 26, (2-Chloro-3-(cyclopropylmethoxy)-6-isopropyl-6-methyl-10-oxo-5,10-dihydro-6H-pyrido[1,2-h][1,7]naphthyridine-9-carboxylic acid-Isomer-1] | 8.00 to 9.00 | > 4 µM |
| CC(C)(C)[C@@H]1Cc2cc(OCC3CC3)c(C3CC3)nc2-c2cc(=O)c(C(=O)O)cn21 [Example 14, (S)-6-(tert-Butyl)-2-cyclopropyl-3-(cyclopropylmethoxy)-10-oxo-6,10-dihydro-5H-pyrido[1,2-h][1,7]naphthyridine-9-carboxylic acid] | > 9.00 | > 4 µM |
| COCCCOc1cc2c(nc1Cl)-c1cc(=O)c(C(=O)O)cn1[C@@H]1C(C)(C)CCC21O (stereo partly drawn) [Example 6, (7aR)-2-Chloro-4b-hydroxy-3-(3-methoxypropoxy)-7,7-dimethyl-11-oxo-4b,5,6,7,7a,11-hexahydrocyclopenta[f]pyrido[1,2-h][1,7]naphthyridine-10-carboxylic acid] | 7.00 to 8.00 | > 4 µM |
| O=C(O)c1cn2c(cc1=O)-c1nc(Cl)c(OCC3CC3)cc1CC21CCC1 [Example 31, 2′-Chloro-3′-(cyclopropylmethoxy)-10′-oxo-5′,10′-dihydrospiro[cyclobutane-1,6′-pyrido[1,2-h][1,7]naphthyridine]-9′-carboxylic acid] | 8.00 to 9.00 | > 4 µM |
| COCCCOc1cc2c(nc1CO)-c1cc(=O)c(C(=O)O)cn1[C@H](C(C)(C)C)C2 [Example 24, (S)-6-(tert-Butyl)-2-(hydroxymethyl)-3-(3-methoxypropoxy)-10-oxo-5,10-dihydro-6H-pyrido[1,2-h][1,7]naphthyridine-9-carboxylic acid] | 8.00 to 9.00 | > 4 µM |
| COCCCOc1cc2c(nc1O)-c1cc(=O)c(C(=O)O)cn1[C@H](C(C)(C)C)C2 [Example 20, (S)-6-(tert-Butyl)-2-hydroxy-3-(3-methoxypropoxy)-10-oxo-6,10-dihydro-5H-pyrido[1,2-h][1,7]naphthyridine-9-carboxylic acid] | < 7.00 | > 4 µM |
| COCCCOc1cc2c(nc1Cl)-c1cc(=O)c(C(=O)O)cn1C1C2CCC1(C)C (racemic) [Example 34, 2-Chloro-3-(3-methoxypropoxy)-7,7-dimethyl-11-oxo-4b,5,6,7,7a,11-hexahydrocyclopenta[f]pyrido[1,2-h][1,7]naphthyridine-10-carboxylic acid] | > 9.00 | > 4 µM |
| COCCCOc1cc2c(nc1Cl)-c1cc(=O)c(C(=O)O)cn1[C@@H]1[C@H]2CCC1(C)C (single isomer, unassigned) [Example 2] | 7.00 to 8.00 | > 4 µM |
| COc1nc2c(cc1OCC1CC1)C[C@H](C(C)(C)C)n1cc(C(=O)O)c(=O)cc1-2 [Example 16, (R)-6-(tert-Butyl)-3-(cyclopropylmethoxy)-2-methoxy-10-oxo-6,10-dihydro-5H-pyrido[1,2-h][1,7]naphthyridine-9-carboxylic acid] | < 7.00 | > 4 µM |
| CC(C)(C)C1Cc2cc(OCC3CC3)c(Cl)nc2-c2cc(=O)c(C(=O)O)cn21 (racemic) [Example 30, 6-(tert-Butyl)-2-chloro-3-(cyclopropylmethoxy)-10-oxo-6,10-dihydro-5H-pyrido[1,2-h][1,7]naphthyridine-9-carboxylic acid] | 8.00 to 9.00 | > 4 µM |
